In ChEMBL document CHEMBL5338817, “Discovery of Exceptionally Potent, Selective, and Efficacious PROTAC Degraders of CBP and p300 Proteins” (J Med Chem, 2023):
“And” between values parts separate entries of the source, which are not always exact repeats. Equal entries are not always repeated. The source made the active and inactive calls. The calls are words filed in the database; no cut-off is given here.

How the values were obtained:
[1] = test system: RS4-11; assay: Cytotoxicity against human RS4-11 cells assessed as maximum inhibition of cell growth incubated for 4 days by cellTiter-Glo assay relative to control; assay type: functional; settings: time 4 day
[2] = target: T1, CREB-binding protein (Homo sapiens, UniProt Q92793); assay: Induction of CBP degradation in human RS4-11 cells incubated for 4 hrs by Western blot assay; assay type: cell-based
Target sequence in this assay (Q92793 whole entry): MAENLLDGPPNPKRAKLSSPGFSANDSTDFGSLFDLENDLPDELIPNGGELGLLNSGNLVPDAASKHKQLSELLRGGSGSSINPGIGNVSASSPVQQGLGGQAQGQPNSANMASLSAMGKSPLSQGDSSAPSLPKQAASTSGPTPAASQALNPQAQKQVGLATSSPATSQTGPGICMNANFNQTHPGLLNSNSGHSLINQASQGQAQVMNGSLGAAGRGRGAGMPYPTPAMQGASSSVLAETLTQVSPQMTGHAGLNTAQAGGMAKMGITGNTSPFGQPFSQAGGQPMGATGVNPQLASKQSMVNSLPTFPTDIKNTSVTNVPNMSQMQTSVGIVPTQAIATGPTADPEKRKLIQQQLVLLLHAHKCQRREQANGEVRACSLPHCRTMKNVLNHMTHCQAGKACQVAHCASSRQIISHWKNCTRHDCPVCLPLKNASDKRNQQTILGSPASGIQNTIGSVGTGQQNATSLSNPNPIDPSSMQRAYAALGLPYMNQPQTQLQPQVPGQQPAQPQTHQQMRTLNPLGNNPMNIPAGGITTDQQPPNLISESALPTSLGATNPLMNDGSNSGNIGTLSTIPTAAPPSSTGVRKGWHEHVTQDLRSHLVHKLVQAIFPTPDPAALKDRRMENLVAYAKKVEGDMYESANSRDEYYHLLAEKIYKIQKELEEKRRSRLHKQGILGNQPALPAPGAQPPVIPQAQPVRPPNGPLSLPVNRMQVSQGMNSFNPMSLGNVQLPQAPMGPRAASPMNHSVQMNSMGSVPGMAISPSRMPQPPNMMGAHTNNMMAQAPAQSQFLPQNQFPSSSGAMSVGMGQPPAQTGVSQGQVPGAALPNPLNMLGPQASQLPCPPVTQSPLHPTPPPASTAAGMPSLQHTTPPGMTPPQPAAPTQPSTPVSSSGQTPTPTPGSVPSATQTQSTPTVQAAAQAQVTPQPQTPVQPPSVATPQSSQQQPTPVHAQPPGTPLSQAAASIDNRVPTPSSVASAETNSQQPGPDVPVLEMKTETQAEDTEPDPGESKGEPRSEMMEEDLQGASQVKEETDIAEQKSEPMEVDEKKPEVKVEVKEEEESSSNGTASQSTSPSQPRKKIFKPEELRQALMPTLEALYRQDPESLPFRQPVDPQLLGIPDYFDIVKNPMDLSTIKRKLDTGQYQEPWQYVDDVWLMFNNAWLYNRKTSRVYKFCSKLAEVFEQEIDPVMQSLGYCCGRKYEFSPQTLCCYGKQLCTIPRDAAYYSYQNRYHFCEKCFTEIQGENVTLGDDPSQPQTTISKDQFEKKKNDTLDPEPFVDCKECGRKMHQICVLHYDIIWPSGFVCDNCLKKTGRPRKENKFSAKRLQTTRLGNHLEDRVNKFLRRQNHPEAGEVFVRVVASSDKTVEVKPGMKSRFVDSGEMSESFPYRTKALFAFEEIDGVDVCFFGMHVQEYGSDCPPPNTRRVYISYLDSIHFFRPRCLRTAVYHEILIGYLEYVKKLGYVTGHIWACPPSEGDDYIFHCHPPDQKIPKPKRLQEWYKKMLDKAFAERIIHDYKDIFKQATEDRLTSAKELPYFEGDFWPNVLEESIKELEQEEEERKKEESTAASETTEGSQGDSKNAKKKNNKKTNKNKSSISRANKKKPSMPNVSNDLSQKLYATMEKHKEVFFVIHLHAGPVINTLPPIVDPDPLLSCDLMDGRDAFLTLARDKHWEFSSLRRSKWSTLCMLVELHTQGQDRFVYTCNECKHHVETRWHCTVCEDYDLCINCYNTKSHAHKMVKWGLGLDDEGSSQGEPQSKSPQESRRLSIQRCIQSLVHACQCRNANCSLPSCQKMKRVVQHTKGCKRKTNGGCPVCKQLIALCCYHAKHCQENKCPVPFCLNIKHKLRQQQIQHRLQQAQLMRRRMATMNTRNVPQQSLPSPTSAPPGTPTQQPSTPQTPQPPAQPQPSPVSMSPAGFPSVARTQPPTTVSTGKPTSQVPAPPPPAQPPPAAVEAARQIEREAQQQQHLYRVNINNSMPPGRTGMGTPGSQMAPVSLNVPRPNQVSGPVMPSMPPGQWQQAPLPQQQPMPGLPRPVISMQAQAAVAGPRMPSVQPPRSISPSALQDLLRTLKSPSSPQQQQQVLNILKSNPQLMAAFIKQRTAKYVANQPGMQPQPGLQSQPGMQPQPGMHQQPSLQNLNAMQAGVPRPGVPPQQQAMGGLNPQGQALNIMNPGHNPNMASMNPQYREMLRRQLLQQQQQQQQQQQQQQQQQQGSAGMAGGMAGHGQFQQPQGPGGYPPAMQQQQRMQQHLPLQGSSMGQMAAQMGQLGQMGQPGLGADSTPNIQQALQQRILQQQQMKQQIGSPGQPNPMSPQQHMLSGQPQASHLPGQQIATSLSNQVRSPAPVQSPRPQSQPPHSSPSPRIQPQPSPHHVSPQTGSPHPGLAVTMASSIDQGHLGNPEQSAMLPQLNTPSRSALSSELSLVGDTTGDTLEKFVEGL

[3] = target: T2, Histone acetyltransferase p300 (Homo sapiens, UniProt Q09472); assay: Induction of p300 degradation in human RS4-11 cells assessed as maximal degradation incubated for 4 hrs by Western blot assay relative to control; assay type: cell-based
[4] = test system: RS4-11; assay: Cytotoxicity against human RS4-11 cells assessed as inhibition of cell growth incubated for 4 days by cellTiter-Glo assay; assay type: functional, cell-based; settings: RS4-11, 96 h
[5] = target: T1, CREB-binding protein; assay: Induction of CBP degradation in human RS4-11 cells assessed as maximal degradation incubated for 4 hrs by Western blot assay; assay type: cell-based
Target sequence in this assay (Q92793 2-2442 limits assumed): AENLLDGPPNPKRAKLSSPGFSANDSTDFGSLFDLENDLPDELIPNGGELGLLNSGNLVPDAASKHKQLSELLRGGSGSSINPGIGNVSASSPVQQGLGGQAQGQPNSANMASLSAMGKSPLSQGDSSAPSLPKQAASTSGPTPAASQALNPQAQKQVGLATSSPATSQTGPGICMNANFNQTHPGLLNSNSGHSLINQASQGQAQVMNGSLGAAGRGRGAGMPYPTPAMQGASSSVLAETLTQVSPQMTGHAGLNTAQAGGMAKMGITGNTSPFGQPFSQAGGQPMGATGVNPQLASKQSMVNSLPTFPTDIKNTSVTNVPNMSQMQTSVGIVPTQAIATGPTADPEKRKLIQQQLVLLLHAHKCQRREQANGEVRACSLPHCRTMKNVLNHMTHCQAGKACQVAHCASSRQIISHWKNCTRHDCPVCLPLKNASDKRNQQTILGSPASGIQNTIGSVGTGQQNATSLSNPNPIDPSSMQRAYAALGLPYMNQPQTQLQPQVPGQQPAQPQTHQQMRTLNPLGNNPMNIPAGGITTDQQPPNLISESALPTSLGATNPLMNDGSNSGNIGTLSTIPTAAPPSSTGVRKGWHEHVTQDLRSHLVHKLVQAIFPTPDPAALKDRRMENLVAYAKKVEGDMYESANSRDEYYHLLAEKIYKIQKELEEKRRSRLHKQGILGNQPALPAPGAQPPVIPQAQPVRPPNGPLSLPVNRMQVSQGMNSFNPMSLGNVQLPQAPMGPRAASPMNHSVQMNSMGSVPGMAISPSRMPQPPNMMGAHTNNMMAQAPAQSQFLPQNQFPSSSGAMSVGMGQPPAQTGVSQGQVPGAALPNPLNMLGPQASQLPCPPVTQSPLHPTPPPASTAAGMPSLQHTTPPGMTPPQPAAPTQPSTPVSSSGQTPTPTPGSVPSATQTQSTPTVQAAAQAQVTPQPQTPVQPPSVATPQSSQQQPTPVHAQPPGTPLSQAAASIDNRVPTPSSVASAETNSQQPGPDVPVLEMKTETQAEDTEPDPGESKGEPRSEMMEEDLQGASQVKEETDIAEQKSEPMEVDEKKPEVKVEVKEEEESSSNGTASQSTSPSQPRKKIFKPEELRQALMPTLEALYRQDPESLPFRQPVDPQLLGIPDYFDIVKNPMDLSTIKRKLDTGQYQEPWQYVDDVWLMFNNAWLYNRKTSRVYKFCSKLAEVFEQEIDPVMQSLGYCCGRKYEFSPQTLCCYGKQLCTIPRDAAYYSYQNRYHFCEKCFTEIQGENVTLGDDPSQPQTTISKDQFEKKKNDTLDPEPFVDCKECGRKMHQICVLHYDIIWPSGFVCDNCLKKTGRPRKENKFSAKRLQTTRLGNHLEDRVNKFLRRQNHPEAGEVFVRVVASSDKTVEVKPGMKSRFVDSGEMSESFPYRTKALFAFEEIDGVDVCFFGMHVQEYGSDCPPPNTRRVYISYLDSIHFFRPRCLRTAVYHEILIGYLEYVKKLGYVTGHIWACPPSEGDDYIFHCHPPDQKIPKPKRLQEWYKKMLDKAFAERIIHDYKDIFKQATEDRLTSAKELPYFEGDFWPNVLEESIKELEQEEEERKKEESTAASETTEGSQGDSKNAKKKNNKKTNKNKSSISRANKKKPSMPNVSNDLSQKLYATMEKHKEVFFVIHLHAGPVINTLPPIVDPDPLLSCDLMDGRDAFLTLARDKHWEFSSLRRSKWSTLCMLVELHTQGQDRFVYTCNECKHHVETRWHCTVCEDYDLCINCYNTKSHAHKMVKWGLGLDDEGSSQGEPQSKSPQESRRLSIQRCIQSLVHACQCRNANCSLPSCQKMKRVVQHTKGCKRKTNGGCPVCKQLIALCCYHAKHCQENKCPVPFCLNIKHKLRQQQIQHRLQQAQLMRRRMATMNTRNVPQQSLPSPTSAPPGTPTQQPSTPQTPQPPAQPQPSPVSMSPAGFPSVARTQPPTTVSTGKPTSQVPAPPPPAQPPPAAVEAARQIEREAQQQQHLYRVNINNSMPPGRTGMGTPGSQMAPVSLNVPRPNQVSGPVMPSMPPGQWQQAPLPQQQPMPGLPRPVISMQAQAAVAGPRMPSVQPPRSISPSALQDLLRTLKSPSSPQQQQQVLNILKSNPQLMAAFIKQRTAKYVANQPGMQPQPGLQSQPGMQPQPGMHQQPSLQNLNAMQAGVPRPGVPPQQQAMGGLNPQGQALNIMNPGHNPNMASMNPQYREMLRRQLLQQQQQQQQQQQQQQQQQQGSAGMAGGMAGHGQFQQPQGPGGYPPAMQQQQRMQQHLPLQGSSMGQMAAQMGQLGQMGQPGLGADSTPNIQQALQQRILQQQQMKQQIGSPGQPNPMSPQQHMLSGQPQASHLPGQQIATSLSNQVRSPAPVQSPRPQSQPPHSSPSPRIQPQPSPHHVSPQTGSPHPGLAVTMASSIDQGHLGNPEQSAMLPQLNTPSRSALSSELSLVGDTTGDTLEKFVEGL

[6] = target: T2, Histone acetyltransferase p300; assay: Induction of p300 degradation in human RS4-11 cells incubated for 4 hrs by Western blot assay; assay type: cell-based; settings: for DC50: rs4-11
[7] = test system: HL-60; assay: Cytotoxicity against human HL-60 cells assessed as inhibition of cell growth incubated for 4 days by cellTiter-Glo assay; assay type: functional, cell-based; settings: HL-60, 96 h
[8] = test system: RS4-11; assay: Induction of cell cycle arrest in human RS4-11 cells assessed as accumulation at G1 phase at 1 uM measured after 8 hrs by PI staining based flow cytometric analysis; assay type: functional
[9] = test system: MOLM-13; assay: Cytotoxicity against human MOLM-13 cells assessed as maximum inhibition of cell growth incubated for 4 days by cellTiter-Glo assay relative to control; assay type: functional; settings: time 4 day
[10] = test system: MV4-11; assay: Cytotoxicity against human MV4-11 cells assessed as maximum inhibition of cell growth incubated for 4 days by cellTiter-Glo assay relative to control; assay type: functional; settings: time 4 day
[11] = test system: MV4-11; assay: Cytotoxicity against human MV4-11 cells assessed as inhibition of cell growth incubated for 4 days by cellTiter-Glo assay; assay type: functional, cell-based; settings: MV4-11, 96 h
[12] = test system: MOLM-13; assay: Cytotoxicity against human MOLM-13 cells assessed as inhibition of cell growth incubated for 4 days by cellTiter-Glo assay; assay type: functional, cell-based; settings: MOLM-13, 96 h
[13] = test system: HL-60; assay: Cytotoxicity against human HL-60 cells assessed as maximum inhibition of cell growth incubated for 4 days by cellTiter-Glo assay relative to control; assay type: functional; settings: time 4 day

Structure (SMILES)	Imax [1] [%]	EC50 [2] [nM]	Emax [3] [%]	IC50 [4] [nM]	Emax [5] [%]	EC50 [6] [nM]	DC50 [6] [nM]	IC50 [7] [nM]	Activity [8]	Imax [9] [%]	Imax [10] [%]	IC50 [11] [nM]	IC50 [12] [nM]	Imax [13] [%]	Imax ([1]; 96 h)
CC(=O)N1CCc2c(c(-c3cccc4cc(-c5ccc(C(=O)N6CCC(C7CN(c8cccc9c8C(=O)N(C8CCC(=O)NC8=O)C9=O)C7)CC6)nc5)ncc34)nn2C2CCOCC2)C1 (stereo unspecified)	>95	3.7	40	2.4	85	–	–	–	–	–	–	–	–	–	–
CC(=O)N1CCc2c(c(-c3cccc4cc(-c5ccc(C(=O)NCCCCCCNc6cccc7c6C(=O)N(C6CCC(=O)NC6=O)C7=O)nc5)ncc34)nn2C2CCOCC2)C1 (stereo unspecified)	80	0.6	87	0.3	99	0.6	–	–	–	–	–	–	–	–	–
CC(=O)N1CCc2c(c(-c3cccc4cc(-c5ccc(C(=O)N6CCN(c7cccc8c7C(=O)N(C7CCC(=O)NC7=O)C8=O)CC6)nc5)ncc34)nn2C2CCOCC2)C1 (stereo unspecified)	86	0.2	99	0.6	99	1.6	–	–	–	–	–	–	–	–	–
CC(=O)N1CCc2c(c(-c3cccc4cc(-c5ccc(C(=O)NCCNc6cccc7c6C(=O)N(C6CCC(=O)NC6=O)C7=O)nc5)ncc34)nn2C2CCOCC2)C1 (stereo unspecified)	50	1.7	37	196	66	–	–	–	–	–	–	–	–	–	–
CNC(=O)N1CCc2c(c(N3CCCc4cc(-c5cnn(C)c5)c(C(F)F)cc43)nn2C2CCN(C(=O)CCOCCOCCOCCOCCNc3ccc4c(c3)C(=O)N(C3CCC(=O)NC3=O)C4=O)CC2)C1 (stereo unspecified)	89	–	–	4.8	–	–	–	–	–	–	–	–	–	–	–
CC(=O)N1CCc2c(c(-c3cccc4cc(-c5ccc(C(=O)NCCCNc6cccc7c6CN(C6CCC(=O)NC6=O)C7=O)nc5)ncc34)nn2C2CCOCC2)C1 (stereo unspecified)	>95	0.2	95	0.1	98	–	1.8	–	–	–	–	–	–	–	–
CC(=O)N1CCc2c(c(-c3cccc4cc(-c5ccc(C(=O)NCCCNc6ccc7c(c6)CN(C6CCC(=O)NC6=O)C7=O)nc5)ncc34)nn2C2CCOCC2)C1 (stereo unspecified)	>95	< 0.1	99	0.1	99	–	0.3	–	–	–	–	–	–	–	–
CC(=O)N1CCc2c(c(-c3cccc4cc(-c5ccc(C(=O)NCCCNc6cccc7c6C(=O)N(C6CCC(=O)NC6=O)C7=O)nc5)ncc34)nn2C2CCOCC2)C1 (stereo unspecified)	>95	1.2	90	0.1	71	0.7	–	–	–	–	–	–	–	–	–
CO[C@H]1CC[C@@H](n2c(C3CCCC(=O)N3c3ccc(F)c(F)c3)nc3cc(-c4c(C)noc4C)ccc32)CC1 (stereo partly specified)	99.8	–	–	544	–	–	–	30	Active	99	98	51.6	23	99	–
CC(=O)N1CCc2c(c(-c3cccc4cc(-c5ccc(C(=O)NCCCCc6cccc7c6CN(C6CCC(=O)NC6=O)C7=O)nc5)ncc34)nn2C2CCOCC2)C1 (stereo unspecified)	>95	0.2	99	0.1	80	–	< 0.1	–	–	–	–	–	–	–	–
CC(=O)N1CCc2c(c(-c3cccc4cc(-c5ccc(C(=O)NCCNc6ccc7c(c6)CN(C6CCC(=O)NC6=O)C7=O)nc5)ncc34)nn2C2CCOCC2)C1 (stereo unspecified)	>95	1.1	73	0.1	80	–	5.1	–	–	–	–	–	–	–	–
CC(=O)N1CCc2c(c(-c3cccc4cc(-c5ccc(C(=O)N6CCC7(CCC(Nc8cccc9c8C(=O)N(C8CCC(=O)NC8=O)C9=O)CC7)CC6)nc5)ncc34)nn2C2CCOCC2)C1 (stereo unspecified)	65	–	10	70	21	–	–	–	–	–	–	–	–	–	–
CC(=O)N1CCc2c(c(-c3cccc4cc(-c5ccc(C(=O)N6CC7(CC(Nc8cccc9c8C(=O)N(C8CCC(=O)NC8=O)C9=O)C7)C6)nc5)ncc34)nn2C2CCOCC2)C1 (stereo unspecified)	85	0.3	95	11	99	1.1	–	–	–	–	–	–	–	–	–
CC(=O)N1CCc2c(c(-c3cccc4cc(-c5ccc(C(=O)NCCCCNc6cccc7c6C(=O)N(C6CCC(=O)NC6=O)C7=O)nc5)ncc34)nn2C2CCOCC2)C1 (stereo unspecified)	>95	1.3	77	0.4	70	0.8	–	–	–	–	–	–	–	–	–
CC(=O)N1CCc2c(c(-c3cccc4cc(-c5ccc(C(=O)NCCCCCCCCNc6cccc7c6C(=O)N(C6CCC(=O)NC6=O)C7=O)nc5)ncc34)nn2C2CCOCC2)C1 (stereo unspecified)	87	0.2	97	1.5	99	1.6	–	–	–	–	–	–	–	–	–
CC(=O)N1CCc2c(c(-c3cccc4cc(-c5ccc(C(=O)NCCCc6cccc7c6CN(C6CCC(=O)NC6=O)C7=O)nc5)ncc34)nn2C2CCOCC2)C1 (stereo unspecified)	95	3.3	99	0.5	95	–	0.3	–	–	–	–	–	–	–	–
C[C@H](N(Cc1ccc(F)cc1)C(=O)CN1C(=O)O[C@@]2(CCc3cc(NC(=O)CCCCCCCCCCCNc4ccc5c(c4)C(=O)N(C4CCC(=O)NC4=O)C5=O)ccc32)C1=O)C(F)(F)F (stereo partly specified)	99	–	–	91	–	–	–	–	–	–	–	–	–	–	–
CC(=O)N1CCc2c(c(-c3cccc4cc(-c5ccc(C(=O)NCCCCCCCNc6cccc7c6C(=O)N(C6CCC(=O)NC6=O)C7=O)nc5)ncc34)nn2C2CCOCC2)C1 (stereo unspecified)	90	12	87	1.6	99	2.3	–	–	–	–	–	–	–	–	–
CC(=O)N1CCc2c(c(-c3cccc4cc(-c5ccc(C(=O)N6CCC(C7CCN(c8cccc9c8C(=O)N(C8CCC(=O)NC8=O)C9=O)CC7)CC6)nc5)ncc34)nn2C2CCOCC2)C1 (stereo unspecified)	88	40	10	24	58	–	–	–	–	–	–	–	–	–	–
CC(=O)N1CCc2c(c(-c3cccc4cc(-c5ccc(C(=O)NCCCCCNc6cccc7c6C(=O)N(C6CCC(=O)NC6=O)C7=O)nc5)ncc34)nn2C2CCOCC2)C1 (stereo unspecified)	>95	1	95	2.2	92	0.3	–	–	–	–	–	–	–	–	–
CC(=O)N1CCc2c(c(-c3cccc4cc(-c5ccc(C(=O)NCCCCCc6cccc7c6CN(C6CCC(=O)NC6=O)C7=O)nc5)ncc34)nn2C2CCOCC2)C1 (stereo unspecified)	>95	0.2	99	0.2	99	–	0.1	–	–	–	–	–	–	–	–
CC(=O)N1CCc2c(c(-c3cccc4cc(-c5ccc(C(=O)N6CCC(Nc7cccc8c7C(=O)N(C7CCC(=O)NC7=O)C8=O)CC6)nc5)ncc34)nn2C2CCOCC2)C1 (stereo unspecified)	70	1.8	25	68	86	–	–	–	–	–	–	–	–	–	–
CC(=O)N1CCc2c(c(-c3cccc4cc(-c5ccc(C(=O)N6CCC7(CC6)CC(Nc6cccc8c6C(=O)N(C6CCC(=O)NC6=O)C8=O)C7)nc5)ncc34)nn2C2CCOCC2)C1 (stereo unspecified)	71	1.7	51	51	96	9.3	–	–	–	–	–	–	–	–	–
CNC(=O)c1ccc(-c2cc3cccc(-c4nn(C5CCOCC5)c5c4CN(C(C)=O)CC5)c3cn2)cn1	75	–	–	–	–	–	–	–	–	98	94	–	–	99	–
CNC(=O)Nc1ccc2c(c1)CC[C@]21CN(CC(=O)N(Cc2ccc(F)cc2)[C@H](C)C(F)(F)F)C(=O)O1	–	–	–	–	–	–	–	152	–	96	94	156	239	99	93.5% and 89% and 99%
CC(=O)N1CCc2c(c(-c3cccc4cc(-c5ccc(C(=O)NCCNc6cccc7c6CN(C6CCC(=O)NC6=O)C7=O)nc5)ncc34)nn2C2CCOCC2)C1 (stereo unspecified)	85	0.6	97	1.3	99	–	1.8	–	–	–	–	–	–	–	–
CC(=O)N1CCc2c(c(-c3cccc4cc(-c5ccc(C(=O)N6CC7(CCC(Nc8cccc9c8C(=O)N(C8CCC(=O)NC8=O)C9=O)CC7)C6)nc5)ncc34)nn2C2CCOCC2)C1 (stereo unspecified)	75	4.8	62	44	81	25	–	–	–	–	–	–	–	–	–
CC(=O)N1CCc2c(c(-c3cccc4cc(-c5ccc(C(=O)NC6CCN(c7ccc8c(c7)C(=O)N(C7CCC(=O)NC7=O)C8=O)CC6)nc5)ncc34)nn2C2CCOCC2)C1 (stereo unspecified)	83	1	99	20	99	1.9	–	–	–	–	–	–	–	–	–
